Data as given in patent publication US20020094988A1, “Method of treating erectile dysfunction” (priority 1999, published 2002).
Counter-ions that a name gives are not always drawn.

System: person with erectile dysfunction
Assay: Erectile strength rated on a unilinear scale of 1 to 10 in treated patients
Type: in vivo, human
Excerpt: Subsequent discontinuation of Pavabid and Trental and placed on Viagra alone.

CCCc1nn(C)c2c(=O)[nH]c(-c3cc(S(=O)(=O)N4CCN(C)CC4)ccc3OCC)nc12 [Viagra, sildenafil citrate]
erectile strength (Example 1: person, rated 3 before treatment): 7 | erectile strength (Example 2: person, rated 2 prior to treatment): 6
